{"source": "the NIST ThermoML archive (doi:10.1021/je500053c)", "key": {"[1]": {"details": "101.33 kPa, Liquid, Vibrating tube method"}, "[2]": {"test": "xn = mol fraction of the nth substance listed", "details": "101 kPa, Liquid, Vibrating tube method"}}, "note": "Numbers after ± are expanded uncertainties.", "data": [{"smiles": "CCCCCC[n+]1ccn(C)c1.O=S(=O)([N-]S(=O)(=O)C(F)(F)F)C(F)(F)F", "values": [{"measurement": "mass density", "setting": "[1]; 288.15 K", "result": "1381.4 ± 0.6", "unit": "kg/m3"}, {"measurement": "mass density", "setting": "[1]; 298.15 K", "result": "1372 ± 0.6", "unit": "kg/m3"}, {"measurement": "mass density", "setting": "[1]; 308.15 K", "result": "1362.7 ± 0.5", "unit": "kg/m3"}, {"measurement": "mass density", "setting": "[1]; 318.15 K", "result": "1353.5 ± 0.5", "unit": "kg/m3"}]}, {"smiles": "CCCCn1cc[n+](C)c1.CS(=O)(=O)[O-]", "note": "[1-butyl-3-methylimidazolium methanesulfonate] + O", "values": [{"measurement": "mass density", "setting": "[2]; 298.15 K, x1 = 0.025", "result": "1038.1 ± 2.9", "unit": "kg/m3"}, {"measurement": "mass density", "setting": "[2]; 298.15 K, x1 = 0.05", "result": "1068.4 ± 2.1", "unit": "kg/m3"}, {"measurement": "mass density", "setting": "[2]; 298.15 K, x1 = 0.075", "result": "1089.3 ± 1.5", "unit": "kg/m3"}, {"measurement": "mass density", "setting": "[2]; 298.15 K, x1 = 0.1", "result": "1104.5 ± 1", "unit": "kg/m3"}, {"measurement": "mass density", "setting": "[2]; 298.15 K, x1 = 0.148", "result": "1123.9 ± 0.7", "unit": "kg/m3"}, {"measurement": "mass density", "setting": "[2]; 298.15 K, x1 = 0.199", "result": "1137.1 ± 0.5", "unit": "kg/m3"}, {"measurement": "mass density", "setting": "[2]; 298.15 K, x1 = 0.251", "result": "1145.7 ± 0.4", "unit": "kg/m3"}, {"measurement": "mass density", "setting": "[2]; 298.15 K, x1 = 0.298", "result": "1151.3 ± 0.3", "unit": "kg/m3"}, {"measurement": "mass density", "setting": "[2]; 298.15 K, x1 = 0.346", "result": "1154.9 ± 0.3", "unit": "kg/m3"}, {"measurement": "mass density", "setting": "[2]; 298.15 K, x1 = 0.441", "result": "1160.6 ± 0.3", "unit": "kg/m3"}, {"measurement": "mass density", "setting": "[2]; 313.15 K, x1 = 0.025", "result": "1031.2 ± 2.7", "unit": "kg/m3"}, {"measurement": "mass density", "setting": "[2]; 313.15 K, x1 = 0.05", "result": "1059.7 ± 2", "unit": "kg/m3"}, {"measurement": "mass density", "setting": "[2]; 313.15 K, x1 = 0.075", "result": "1079.7 ± 1.4", "unit": "kg/m3"}, {"measurement": "mass density", "setting": "[2]; 313.15 K, x1 = 0.1", "result": "1093.5 ± 0.9", "unit": "kg/m3"}, {"measurement": "mass density", "setting": "[2]; 313.15 K, x1 = 0.148", "result": "1113.6 ± 0.7", "unit": "kg/m3"}, {"measurement": "mass density", "setting": "[2]; 313.15 K, x1 = 0.199", "result": "1126.8 ± 0.5", "unit": "kg/m3"}, {"measurement": "mass density", "setting": "[2]; 313.15 K, x1 = 0.251", "result": "1135.5 ± 0.4", "unit": "kg/m3"}, {"measurement": "mass density", "setting": "[2]; 313.15 K, x1 = 0.298", "result": "1141.2 ± 0.3", "unit": "kg/m3"}, {"measurement": "mass density", "setting": "[2]; 313.15 K, x1 = 0.346", "result": "1144.8 ± 0.3", "unit": "kg/m3"}, {"measurement": "mass density", "setting": "[2]; 313.15 K, x1 = 0.441", "result": "1150.6 ± 0.3", "unit": "kg/m3"}, {"measurement": "mass density", "setting": "[2]; 323.15 K, x1 = 0.025", "result": "1025.9 ± 2.6", "unit": "kg/m3"}, {"measurement": "mass density", "setting": "[2]; 323.15 K, x1 = 0.05", "result": "1053.6 ± 1.9", "unit": "kg/m3"}, {"measurement": "mass density", "setting": "[2]; 323.15 K, x1 = 0.075", "result": "1073.1 ± 1.4", "unit": "kg/m3"}, {"measurement": "mass density", "setting": "[2]; 323.15 K, x1 = 0.1", "result": "1087.6 ± 0.9", "unit": "kg/m3"}, {"measurement": "mass density", "setting": "[2]; 323.15 K, x1 = 0.148", "result": "1106.6 ± 0.7", "unit": "kg/m3"}, {"measurement": "mass density", "setting": "[2]; 323.15 K, x1 = 0.199", "result": "1119.9 ± 0.5", "unit": "kg/m3"}, {"measurement": "mass density", "setting": "[2]; 323.15 K, x1 = 0.251", "result": "1128.6 ± 0.4", "unit": "kg/m3"}, {"measurement": "mass density", "setting": "[2]; 323.15 K, x1 = 0.298", "result": "1134.4 ± 0.3", "unit": "kg/m3"}, {"measurement": "mass density", "setting": "[2]; 323.15 K, x1 = 0.346", "result": "1138.1 ± 0.3", "unit": "kg/m3"}, {"measurement": "mass density", "setting": "[2]; 323.15 K, x1 = 0.441", "result": "1144 ± 0.3", "unit": "kg/m3"}, {"measurement": "mass density", "setting": "[2]; 333.15 K, x1 = 0.025", "result": "1020.1 ± 2.6", "unit": "kg/m3"}, {"measurement": "mass density", "setting": "[2]; 333.15 K, x1 = 0.05", "result": "1047.1 ± 1.9", "unit": "kg/m3"}, {"measurement": "mass density", "setting": "[2]; 333.15 K, x1 = 0.075", "result": "1066.2 ± 1.4", "unit": "kg/m3"}, {"measurement": "mass density", "setting": "[2]; 333.15 K, x1 = 0.1", "result": "1080.5 ± 0.9", "unit": "kg/m3"}, {"measurement": "mass density", "setting": "[2]; 333.15 K, x1 = 0.148", "result": "1099.5 ± 0.7", "unit": "kg/m3"}, {"measurement": "mass density", "setting": "[2]; 333.15 K, x1 = 0.199", "result": "1112.9 ± 0.5", "unit": "kg/m3"}, {"measurement": "mass density", "setting": "[2]; 333.15 K, x1 = 0.251", "result": "1121.7 ± 0.4", "unit": "kg/m3"}, {"measurement": "mass density", "setting": "[2]; 333.15 K, x1 = 0.298", "result": "1127.6 ± 0.3", "unit": "kg/m3"}, {"measurement": "mass density", "setting": "[2]; 333.15 K, x1 = 0.346", "result": "1131.4 ± 0.3", "unit": "kg/m3"}, {"measurement": "mass density", "setting": "[2]; 333.15 K, x1 = 0.441", "result": "1137.3 ± 0.3", "unit": "kg/m3"}, {"measurement": "mass density", "setting": "[2]; 343.15 K, x1 = 0.025", "result": "1013.9 ± 2.5", "unit": "kg/m3"}, {"measurement": "mass density", "setting": "[2]; 343.15 K, x1 = 0.05", "result": "1040.3 ± 1.8", "unit": "kg/m3"}, {"measurement": "mass density", "setting": "[2]; 343.15 K, x1 = 0.075", "result": "1059.2 ± 1.3", "unit": "kg/m3"}, {"measurement": "mass density", "setting": "[2]; 343.15 K, x1 = 0.1", "result": "1073.3 ± 0.9", "unit": "kg/m3"}, {"measurement": "mass density", "setting": "[2]; 343.15 K, x1 = 0.148", "result": "1092.3 ± 0.7", "unit": "kg/m3"}, {"measurement": "mass density", "setting": "[2]; 343.15 K, x1 = 0.199", "result": "1105.7 ± 0.5", "unit": "kg/m3"}, {"measurement": "mass density", "setting": "[2]; 343.15 K, x1 = 0.251", "result": "1114.7 ± 0.4", "unit": "kg/m3"}, {"measurement": "mass density", "setting": "[2]; 343.15 K, x1 = 0.298", "result": "1120.7 ± 0.3", "unit": "kg/m3"}, {"measurement": "mass density", "setting": "[2]; 343.15 K, x1 = 0.346", "result": "1124.6 ± 0.3", "unit": "kg/m3"}, {"measurement": "mass density", "setting": "[2]; 343.15 K, x1 = 0.441", "result": "1130.7 ± 0.3", "unit": "kg/m3"}, {"measurement": "mass density", "setting": "[2]; 358.15 K, x1 = 0.025", "result": "1003.9 ± 2.5", "unit": "kg/m3"}, {"measurement": "mass density", "setting": "[2]; 358.15 K, x1 = 0.05", "result": "1029.7 ± 1.8", "unit": "kg/m3"}, {"measurement": "mass density", "setting": "[2]; 358.15 K, x1 = 0.075", "result": "1048.2 ± 1.3", "unit": "kg/m3"}, {"measurement": "mass density", "setting": "[2]; 358.15 K, x1 = 0.1", "result": "1062.3 ± 0.9", "unit": "kg/m3"}, {"measurement": "mass density", "setting": "[2]; 358.15 K, x1 = 0.148", "result": "1081.2 ± 0.7", "unit": "kg/m3"}, {"measurement": "mass density", "setting": "[2]; 358.15 K, x1 = 0.199", "result": "1094.9 ± 0.5", "unit": "kg/m3"}, {"measurement": "mass density", "setting": "[2]; 358.15 K, x1 = 0.251", "result": "1104.1 ± 0.4", "unit": "kg/m3"}, {"measurement": "mass density", "setting": "[2]; 358.15 K, x1 = 0.298", "result": "1110.3 ± 0.3", "unit": "kg/m3"}, {"measurement": "mass density", "setting": "[2]; 358.15 K, x1 = 0.346", "result": "1114.4 ± 0.3", "unit": "kg/m3"}, {"measurement": "mass density", "setting": "[2]; 358.15 K, x1 = 0.441", "result": "1120.7 ± 0.3", "unit": "kg/m3"}]}, {"smiles": "O", "note": "[water] + CCCCn1cc[n+](C)c1.CS(=O)(=O)[O-]", "values": [{"measurement": "mass density", "setting": "[2]; 333.15 K, x2 = 0", "result": "983.2 ± 0.2", "unit": "kg/m3"}, {"measurement": "mass density", "setting": "[2]; 343.15 K, x2 = 0", "result": "977.8 ± 0.2", "unit": "kg/m3"}, {"measurement": "mass density", "setting": "[2]; 358.15 K, x2 = 0", "result": "968.3 ± 0.2", "unit": "kg/m3"}]}]}
